The values below come from ChEMBL document CHEMBL1145182, “Molecular dynamics simulations of the TEM-1 beta-lactamase complexed with cephalothin” (J Med Chem, 2005).

The test deals with Beta-lactamase TEM (Escherichia coli) (UniProt P62593). Put plainly: Rate of catalysis against TEM-1 beta-lactamase.
Sequence of Beta-lactamase TEM (Escherichia coli) (P62593 whole entry): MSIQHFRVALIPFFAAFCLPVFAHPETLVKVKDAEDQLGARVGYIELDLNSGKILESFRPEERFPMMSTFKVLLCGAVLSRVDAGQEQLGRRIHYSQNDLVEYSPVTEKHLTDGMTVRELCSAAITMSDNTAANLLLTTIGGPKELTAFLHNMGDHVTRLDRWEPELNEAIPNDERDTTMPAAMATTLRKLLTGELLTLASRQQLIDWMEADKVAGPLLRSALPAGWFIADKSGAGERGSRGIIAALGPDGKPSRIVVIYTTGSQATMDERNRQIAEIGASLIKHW

Regarding `CC1(C)S[C@@H]2[C@H](NC(=O)Cc3ccccc3)C(=O)N2[C@H]1C(=O)O`, the K cat was 1280 1/S.
In the case of `CC(=O)OCC1=C(C(=O)O)N2C(=O)[C@@H](NC(=O)Cc3cccs3)[C@H]2SC1` it was 115 1/S.
